Measured values taken from PMC7316778 (Nature Communications, 2020).
Several values for one entry are separate records, joined by “and”; a condition that tells them apart may be missing. Equal entries are not always repeated. Where two headings read alike, the source gives them in different places.

Key:
Assay in all cases: SelectScreen kinase assay
RPS6KB2 (p70S6Kb) = RPS6KB2 (p70S6Kb) (Homo sapiens, UniProt Q9UBS0)
Experimental: (§1) Selectivity profiling assays were performed by the Invitrogen SelectScreen™ Services. […] The concentration of ATP was selected to be equal to the KM, unless indicated otherwise.

SIK3 = SIK3 (Homo sapiens, UniProt Q9Y2K2)
Experimental: as §1

ERBB4 (HER4) = ERBB4 (HER4) (Homo sapiens, UniProt Q15303); settings: for Inhibition at 1 µM (%): ERBB4 (HER4), ZLYTE, ATP Km app
Experimental: as §1

EPHA6 = EPHA6 (Homo sapiens, UniProt Q9UF33)
Experimental: as §1

PIK3C3 (hVPS34) = PIK3C3 (hVPS34) (Homo sapiens, UniProt Q8NEB9)
Sequence of PIK3C3 (hVPS34) (Q8NEB9 whole entry): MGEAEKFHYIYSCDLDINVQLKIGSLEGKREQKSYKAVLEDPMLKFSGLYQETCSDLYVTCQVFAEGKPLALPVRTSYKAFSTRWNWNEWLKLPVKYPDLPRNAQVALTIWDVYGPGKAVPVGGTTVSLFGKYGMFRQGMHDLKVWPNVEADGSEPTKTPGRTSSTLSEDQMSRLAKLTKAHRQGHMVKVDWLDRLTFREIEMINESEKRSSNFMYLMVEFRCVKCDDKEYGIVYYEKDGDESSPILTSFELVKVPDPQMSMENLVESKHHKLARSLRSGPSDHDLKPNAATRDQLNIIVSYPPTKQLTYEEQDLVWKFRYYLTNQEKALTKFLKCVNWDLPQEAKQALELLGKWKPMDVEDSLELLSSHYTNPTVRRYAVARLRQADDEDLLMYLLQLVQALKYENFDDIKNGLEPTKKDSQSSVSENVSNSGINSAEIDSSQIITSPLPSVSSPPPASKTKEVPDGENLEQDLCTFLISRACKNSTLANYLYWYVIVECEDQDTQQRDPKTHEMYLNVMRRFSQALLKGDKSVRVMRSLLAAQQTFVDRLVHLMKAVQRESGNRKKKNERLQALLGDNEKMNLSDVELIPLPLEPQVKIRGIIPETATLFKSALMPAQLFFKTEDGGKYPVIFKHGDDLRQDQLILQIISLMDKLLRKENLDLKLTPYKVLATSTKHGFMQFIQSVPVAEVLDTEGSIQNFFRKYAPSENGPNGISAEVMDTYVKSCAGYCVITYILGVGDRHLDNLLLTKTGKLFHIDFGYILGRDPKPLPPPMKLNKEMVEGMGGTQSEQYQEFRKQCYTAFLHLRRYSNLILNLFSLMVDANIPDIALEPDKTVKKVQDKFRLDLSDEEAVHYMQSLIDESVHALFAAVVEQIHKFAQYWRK
Experimental: as §1

MAPK15 (ERK7) = biological target: T1, MAPK15 (ERK7) (Homo sapiens, UniProt Q8TD08)
T1 sequence (Q8TD08 1-544): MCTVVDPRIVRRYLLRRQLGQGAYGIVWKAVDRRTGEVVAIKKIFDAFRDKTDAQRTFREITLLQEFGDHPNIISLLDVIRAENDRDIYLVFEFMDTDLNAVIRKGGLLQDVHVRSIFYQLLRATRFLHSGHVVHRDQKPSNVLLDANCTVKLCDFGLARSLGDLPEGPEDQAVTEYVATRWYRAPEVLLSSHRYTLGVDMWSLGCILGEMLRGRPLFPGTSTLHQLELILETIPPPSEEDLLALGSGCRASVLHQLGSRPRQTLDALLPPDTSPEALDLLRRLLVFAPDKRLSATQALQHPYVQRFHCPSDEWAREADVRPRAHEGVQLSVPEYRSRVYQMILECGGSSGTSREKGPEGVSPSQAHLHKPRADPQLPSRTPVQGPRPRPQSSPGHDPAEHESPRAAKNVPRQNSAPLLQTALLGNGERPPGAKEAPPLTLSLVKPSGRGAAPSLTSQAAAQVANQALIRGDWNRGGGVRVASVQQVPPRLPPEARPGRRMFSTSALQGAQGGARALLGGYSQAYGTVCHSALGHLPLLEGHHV
Experimental: as §1

PASK = PASK (Homo sapiens, UniProt Q96RG2); settings: for Inhibition at 1 µM (%): PASK, ZLYTE, ATP Km app
Sequence of PASK (Q96RG2 whole entry): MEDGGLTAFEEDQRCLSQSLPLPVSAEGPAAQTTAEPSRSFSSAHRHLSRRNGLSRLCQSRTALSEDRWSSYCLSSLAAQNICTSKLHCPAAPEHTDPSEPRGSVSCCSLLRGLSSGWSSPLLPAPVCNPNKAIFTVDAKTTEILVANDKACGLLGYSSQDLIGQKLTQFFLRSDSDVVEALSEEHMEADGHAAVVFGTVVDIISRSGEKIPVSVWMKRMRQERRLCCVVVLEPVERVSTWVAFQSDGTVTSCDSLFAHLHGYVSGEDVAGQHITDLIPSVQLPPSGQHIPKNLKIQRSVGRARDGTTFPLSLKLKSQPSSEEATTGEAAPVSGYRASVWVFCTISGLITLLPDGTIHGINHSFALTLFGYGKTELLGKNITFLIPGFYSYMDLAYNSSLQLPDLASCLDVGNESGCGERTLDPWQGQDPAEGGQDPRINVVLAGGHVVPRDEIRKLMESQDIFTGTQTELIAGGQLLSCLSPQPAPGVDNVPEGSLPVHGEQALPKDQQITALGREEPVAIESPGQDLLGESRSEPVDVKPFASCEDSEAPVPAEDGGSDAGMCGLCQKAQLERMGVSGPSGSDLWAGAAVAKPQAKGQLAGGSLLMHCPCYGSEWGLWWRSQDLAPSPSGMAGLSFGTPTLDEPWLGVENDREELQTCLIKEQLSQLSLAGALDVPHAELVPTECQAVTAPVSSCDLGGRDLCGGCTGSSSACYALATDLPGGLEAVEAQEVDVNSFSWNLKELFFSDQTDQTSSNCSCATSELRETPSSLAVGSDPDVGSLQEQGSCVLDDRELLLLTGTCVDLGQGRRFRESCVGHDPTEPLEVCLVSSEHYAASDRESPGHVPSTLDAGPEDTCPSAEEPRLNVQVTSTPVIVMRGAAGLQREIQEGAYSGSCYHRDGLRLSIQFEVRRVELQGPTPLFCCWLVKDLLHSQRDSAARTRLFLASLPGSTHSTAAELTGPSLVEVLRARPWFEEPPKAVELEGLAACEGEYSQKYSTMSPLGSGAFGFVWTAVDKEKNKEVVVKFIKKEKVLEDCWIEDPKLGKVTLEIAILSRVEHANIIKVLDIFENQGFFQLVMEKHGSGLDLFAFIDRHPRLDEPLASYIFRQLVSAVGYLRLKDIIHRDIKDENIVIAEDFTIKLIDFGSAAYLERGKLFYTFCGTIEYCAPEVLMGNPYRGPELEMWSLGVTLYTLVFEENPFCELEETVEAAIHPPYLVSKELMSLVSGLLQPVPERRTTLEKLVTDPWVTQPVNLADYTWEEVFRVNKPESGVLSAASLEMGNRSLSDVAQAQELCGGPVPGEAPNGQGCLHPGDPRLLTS
Experimental: as §1

EPHB2 = biological target: T2, EPHB2 (Homo sapiens, UniProt P29323); settings: for Inhibition at 1 µM (%): EPHB2, ZLYTE, ATP Km app
T2 sequence (P29323 19-1055): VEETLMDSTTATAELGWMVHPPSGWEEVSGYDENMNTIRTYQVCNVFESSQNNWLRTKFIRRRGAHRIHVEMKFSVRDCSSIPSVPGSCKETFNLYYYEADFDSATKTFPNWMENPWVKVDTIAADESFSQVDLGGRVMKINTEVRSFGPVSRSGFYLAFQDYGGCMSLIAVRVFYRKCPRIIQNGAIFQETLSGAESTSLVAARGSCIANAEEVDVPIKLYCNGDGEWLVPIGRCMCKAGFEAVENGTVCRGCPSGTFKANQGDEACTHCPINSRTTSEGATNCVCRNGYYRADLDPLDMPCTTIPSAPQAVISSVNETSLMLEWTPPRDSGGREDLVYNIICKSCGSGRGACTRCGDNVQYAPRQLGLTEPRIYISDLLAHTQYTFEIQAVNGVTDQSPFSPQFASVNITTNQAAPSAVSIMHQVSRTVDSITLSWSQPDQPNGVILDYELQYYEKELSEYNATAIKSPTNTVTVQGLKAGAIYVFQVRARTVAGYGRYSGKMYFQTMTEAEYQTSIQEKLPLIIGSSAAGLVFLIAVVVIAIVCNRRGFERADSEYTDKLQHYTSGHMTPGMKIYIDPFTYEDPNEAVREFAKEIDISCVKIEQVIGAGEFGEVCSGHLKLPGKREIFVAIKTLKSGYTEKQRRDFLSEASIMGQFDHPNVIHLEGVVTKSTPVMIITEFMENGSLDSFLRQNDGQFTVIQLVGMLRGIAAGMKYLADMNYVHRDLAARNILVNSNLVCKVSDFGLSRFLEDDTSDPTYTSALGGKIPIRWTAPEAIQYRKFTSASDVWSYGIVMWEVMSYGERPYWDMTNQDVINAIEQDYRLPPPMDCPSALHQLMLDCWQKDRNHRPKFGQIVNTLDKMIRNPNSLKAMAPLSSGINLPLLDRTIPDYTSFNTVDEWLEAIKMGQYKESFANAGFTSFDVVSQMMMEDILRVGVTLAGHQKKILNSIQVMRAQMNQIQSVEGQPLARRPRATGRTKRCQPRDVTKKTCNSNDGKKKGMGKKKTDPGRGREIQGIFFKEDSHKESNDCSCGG
Experimental: as §1

PDK1 = biological target: T3, PDK1 (Homo sapiens, UniProt O15530)
T3 sequence (O15530 1-556): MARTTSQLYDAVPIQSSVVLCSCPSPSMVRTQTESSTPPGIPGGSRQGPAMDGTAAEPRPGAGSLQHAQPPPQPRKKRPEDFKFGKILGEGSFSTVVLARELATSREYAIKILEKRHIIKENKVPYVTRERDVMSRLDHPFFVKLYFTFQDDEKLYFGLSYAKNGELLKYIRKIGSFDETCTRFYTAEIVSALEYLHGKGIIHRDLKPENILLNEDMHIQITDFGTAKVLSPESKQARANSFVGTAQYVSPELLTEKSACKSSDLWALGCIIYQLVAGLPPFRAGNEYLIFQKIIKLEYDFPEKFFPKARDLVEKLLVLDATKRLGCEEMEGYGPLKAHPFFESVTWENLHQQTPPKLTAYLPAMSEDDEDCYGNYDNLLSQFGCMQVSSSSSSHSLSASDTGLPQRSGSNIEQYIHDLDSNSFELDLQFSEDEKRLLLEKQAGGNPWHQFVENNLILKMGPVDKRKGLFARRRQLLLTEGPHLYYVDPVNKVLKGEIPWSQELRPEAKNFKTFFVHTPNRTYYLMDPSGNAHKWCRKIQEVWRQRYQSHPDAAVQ
Experimental: as §1

CHUK (IKK alpha) = CHUK (IKK alpha) (Homo sapiens, UniProt O15111)
Sequence of CHUK (IKK alpha) (O15111 whole entry): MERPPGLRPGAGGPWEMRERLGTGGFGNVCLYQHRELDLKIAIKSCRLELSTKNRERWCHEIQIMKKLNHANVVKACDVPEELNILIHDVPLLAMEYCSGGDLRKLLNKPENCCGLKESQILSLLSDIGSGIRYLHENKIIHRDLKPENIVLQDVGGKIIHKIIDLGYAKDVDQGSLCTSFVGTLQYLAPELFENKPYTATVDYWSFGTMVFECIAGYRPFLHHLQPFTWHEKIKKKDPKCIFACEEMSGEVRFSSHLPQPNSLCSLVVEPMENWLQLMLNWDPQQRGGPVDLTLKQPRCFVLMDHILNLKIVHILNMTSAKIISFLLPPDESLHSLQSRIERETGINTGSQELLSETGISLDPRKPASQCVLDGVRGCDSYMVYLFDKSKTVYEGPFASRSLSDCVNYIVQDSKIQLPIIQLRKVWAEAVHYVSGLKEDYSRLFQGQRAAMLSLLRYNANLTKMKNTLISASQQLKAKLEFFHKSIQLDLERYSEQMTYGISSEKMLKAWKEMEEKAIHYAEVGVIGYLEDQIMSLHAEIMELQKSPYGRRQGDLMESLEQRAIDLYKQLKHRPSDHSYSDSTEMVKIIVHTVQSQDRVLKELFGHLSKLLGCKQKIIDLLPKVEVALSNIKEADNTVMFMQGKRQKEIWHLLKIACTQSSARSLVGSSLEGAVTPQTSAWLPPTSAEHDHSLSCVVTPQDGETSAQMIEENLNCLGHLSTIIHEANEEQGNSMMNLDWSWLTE
Experimental: as §1

[1] = 1 h, 1 μM WEL028, 1 h preincubation

Sequence of SIK3 (Q9Y2K2 whole entry): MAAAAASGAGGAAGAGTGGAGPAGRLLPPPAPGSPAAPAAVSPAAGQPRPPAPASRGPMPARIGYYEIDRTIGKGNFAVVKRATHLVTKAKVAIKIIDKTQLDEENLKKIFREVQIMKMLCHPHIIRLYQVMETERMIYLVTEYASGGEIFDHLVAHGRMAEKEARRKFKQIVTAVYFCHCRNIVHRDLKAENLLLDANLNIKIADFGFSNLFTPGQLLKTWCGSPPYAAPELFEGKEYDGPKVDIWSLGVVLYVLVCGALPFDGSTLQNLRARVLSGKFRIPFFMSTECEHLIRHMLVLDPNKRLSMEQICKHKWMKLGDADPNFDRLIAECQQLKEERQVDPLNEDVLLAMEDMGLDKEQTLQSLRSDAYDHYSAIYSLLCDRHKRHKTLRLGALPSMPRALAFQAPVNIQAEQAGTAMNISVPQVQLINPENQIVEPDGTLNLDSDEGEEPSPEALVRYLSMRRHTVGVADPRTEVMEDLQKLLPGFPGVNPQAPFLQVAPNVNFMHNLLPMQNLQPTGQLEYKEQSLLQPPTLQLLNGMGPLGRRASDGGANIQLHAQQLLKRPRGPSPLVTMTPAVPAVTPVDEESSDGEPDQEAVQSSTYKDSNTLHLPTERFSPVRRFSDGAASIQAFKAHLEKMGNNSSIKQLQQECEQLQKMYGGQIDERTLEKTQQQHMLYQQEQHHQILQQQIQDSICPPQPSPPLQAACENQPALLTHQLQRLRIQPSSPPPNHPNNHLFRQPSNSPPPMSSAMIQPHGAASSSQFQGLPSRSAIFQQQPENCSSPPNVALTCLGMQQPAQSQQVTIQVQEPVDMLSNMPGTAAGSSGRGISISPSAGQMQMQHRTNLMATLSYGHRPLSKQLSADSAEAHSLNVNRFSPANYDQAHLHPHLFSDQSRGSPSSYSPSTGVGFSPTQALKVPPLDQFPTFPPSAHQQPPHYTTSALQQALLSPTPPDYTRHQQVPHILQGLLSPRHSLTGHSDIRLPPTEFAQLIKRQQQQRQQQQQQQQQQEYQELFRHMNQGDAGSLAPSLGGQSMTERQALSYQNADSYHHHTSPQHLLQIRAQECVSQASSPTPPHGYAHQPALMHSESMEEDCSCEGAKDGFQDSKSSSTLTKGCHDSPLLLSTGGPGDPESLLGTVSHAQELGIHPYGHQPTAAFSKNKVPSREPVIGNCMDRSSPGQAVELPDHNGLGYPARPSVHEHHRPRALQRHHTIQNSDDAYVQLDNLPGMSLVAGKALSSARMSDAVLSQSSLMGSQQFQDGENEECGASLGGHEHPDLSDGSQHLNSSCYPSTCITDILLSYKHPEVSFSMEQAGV
Sequence of RPS6KB2 (p70S6Kb) (Q9UBS0 whole entry): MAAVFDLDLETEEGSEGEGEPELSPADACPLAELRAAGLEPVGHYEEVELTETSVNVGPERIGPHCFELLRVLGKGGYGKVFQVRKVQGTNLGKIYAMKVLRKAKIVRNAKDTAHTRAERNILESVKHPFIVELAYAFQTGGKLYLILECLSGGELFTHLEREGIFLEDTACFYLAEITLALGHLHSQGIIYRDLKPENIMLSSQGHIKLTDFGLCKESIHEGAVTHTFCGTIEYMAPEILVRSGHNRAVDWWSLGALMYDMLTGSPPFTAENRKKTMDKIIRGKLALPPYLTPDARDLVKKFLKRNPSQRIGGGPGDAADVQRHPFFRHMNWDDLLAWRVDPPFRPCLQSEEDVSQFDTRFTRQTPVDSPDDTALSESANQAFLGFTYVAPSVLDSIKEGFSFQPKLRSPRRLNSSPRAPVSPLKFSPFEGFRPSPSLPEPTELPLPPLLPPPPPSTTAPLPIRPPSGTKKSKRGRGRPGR

C#CCOc1ccc(Nc2ncc(Cl)c(Nc3ccccc3NC(=O)C=C)n2)c(OC)c1 [Compound 6] was tested, and the “Inhibition at 1 µM (%)” value (RPS6KB2 (p70S6Kb); 1 µM, ZLYTE, ATP Km app, listed as WEL028, 1 µM) was 1% and 4%, the inhibition at 1 µM (RPS6KB2 (p70S6Kb); [1]) was 3% and the “Inhibition (%)” value (SIK3; 1 μM WEL028, 1 h preincubation) was 2%. The “Inhibition at 1 µM (%)” value (SIK3; 1 µM, LanthaScreen Binding, listed as WEL028, 1 µM) was 0% and 5%, the inhibition at 1 µM (ERBB4 (HER4); [1]) was 8% and the “Inhibition at 1 µM (%)” value (ERBB4 (HER4)) was 11%. The “Inhibition at 1 µM (%)” value (ERBB4 (HER4); listed as WEL028, 1 µM) was 5%, the inhibition at 1 µM (EPHA6; [1]) was 6% and the inhibition at 1 µM (EPHA6; read-out: Inhibition at 1 µM (%), EPHA6, 1 µM, LanthaScreen Binding) was 5%. For the same molecule, the inhibition at 1 µM (PIK3C3 (hVPS34); [1]) was 11%, the “Inhibition at 1 µM (%)” value (PIK3C3 (hVPS34); PIK3C3 (hVPS34), 1 µM, Adapta, ATP Km app, listed as WEL028, 1 µM) was 12% and the inhibition at 1 µM (PIK3C3 (hVPS34); read-out: Inhibition at 1 µM (%), PIK3C3 (hVPS34), 1 µM, Adapta, ATP Km app) was 11%. The inhibition at 1 µM (MAPK15 (ERK7); [1]) was 5%, the “Inhibition at 1 µM (%)” value (MAPK15 (ERK7); MAPK15 (ERK7), 1 µM, LanthaScreen Binding, listed as WEL028, 1 µM) was 4% and the inhibition at 1 µM (MAPK15 (ERK7); read-out: Inhibition at 1 µM (%), MAPK15 (ERK7), 1 µM, LanthaScreen Binding) was 7%. The inhibition at 1 µM (PASK; [1]) was 2%, the “Inhibition at 1 µM (%)” value (PASK) was -3% and the “Inhibition at 1 µM (%)” value (PASK; listed as WEL028, 1 µM) was 7%. The “Inhibition (%)” value (EPHB2; 1 μM WEL028, 1 h preincubation) was 4%, the “Inhibition at 1 µM (%)” value (EPHB2) was 2% and the “Inhibition at 1 µM (%)” value (EPHB2; listed as WEL028, 1 µM) was 5%. For the same molecule, the inhibition at 1 µM (PDK1; [1]) was 36%, the “Inhibition at 1 µM (%)” value (PDK1; PDK1, 1 µM, ZLYTE, ATP 100, listed as WEL028, 1 µM) was 35% and the inhibition at 1 µM (PDK1; read-out: Inhibition at 1 µM (%), PDK1, 1 µM, ZLYTE, ATP 100) was 36%. For the same molecule, the inhibition at 1 µM (CHUK (IKK alpha); [1]) was 7% and the “Inhibition at 1 µM (%)” value (CHUK (IKK alpha); CHUK (IKK alpha), 1 µM, Adapta, ATP Km app, listed as WEL028, 1 µM) was 12% and 3%.
